Test results as given in PMC5937873, “Improving the biopharmaceutical attributes of mangiferin using vitamin E-TPGS co-loaded self-assembled phosholipidic nano-mixed micellar systems” (Drug Delivery and Translational Research, 2018).
In brackets after ≈: the same amount, converted by molar mass. Where two headings read alike, the source gives them in different places.

Key:
[1] = Equilibrium solubility studies in emulgents and cosolvents; type: physicochemical; details: 37 ± 1 °C
Experimental: Solubility studies for Mgf were carried out for 72 h at 37 ± 1 °C in a water bath by adding an excess amount of drug in various water-soluble emulgents, viz. Acconon CC-6, Cremophor RH40, Cremophor EL, Vitamin E TPGS, Labrafil […], Labrasol, Tween 80 and Tween 40. Cosolvents employed included Transcutol HP, PEG 200, and propylene glycol. Aliquots of the filtrate were suitably diluted with methanol and analyzed using the HPTLC method previously reported by the authors at a λmax of 262 nm.

[2] = In vivo pharmacokinetic studies; details: rat, oral, Mgf equivalent to 30 mg/kg
Experimental: In vivo pharmacokinetic studies were conducted by sparse sampling designed experiment. The formulations were administered through oral gavage on two groups of rats (n = 60). Within each group, five subgroups were designated (5 × 6 = 30 animals were employed in one group) and from one animal maximum two blood samples were withdrawn during the entire study alternating between left and right eyes. Group I was administered plain Mgf solution and Group II was given Mgf-SPNMS containing Mgf equivalent to 30mg/Kg. The animals were anesthetized employing isoflurane, and the blood (200 μL) was withdrawn from the retro-orbital plexus of rats at 0.5, 1, 2, 3, 6, 12, 18, 24, and 36 h, in heparin-coated micro-centrifuge tubes.
Further, plasma was harvested by centrifugation at 10,000 rpm (559 g) for 5 min and analyzed for Mgf using the previously reported and validated HPTLC method. The data were analyzed by non-compartmental and compartmental pharmacokinetic modeling approaches using the WinNonlin software, version 5.0 ([…]). Statistical tests like one-way/two-way ANOVA followed by post hoc multiple comparison tests, and Student’s independent t test has been applied wherever applicable.

[3] = test system: vital organs; assay: Histopathology of vital organs (in vivo toxicity); details: SD female rats, 30 mg/kg Mgf oral gavage, three times per week for 4 weeks
[4] = test system: whole blood; assay: Hematological studies (whole blood count, RBC morphology); details: SD female rats, 30 mg/kg Mgf oral gavage, three times per week for 4 weeks
[5] = Biopharmaceutics classification (BCS); details: by virtue of low aqueous solubility and lipophilicity
[6] = excised rat small intestine, 2 h
[7] = target: T1, MDR1 transporters (Homo sapiens, UniProt P08183); assay: P-gp efflux assay with Rh-123 dye (multi-drug resistance dye efflux kit); type: cell-based; details: MCF-7 and MDA-MB-231 cells, 37 °C
T1 construct: Overexpression of P-gp in MCF-7 and MDA-MB-231 cells is well-documented in literature; endogenous in cells; host or cells: MCF-7 and MDA-MB-231 cells
Experimental: (§1) Overexpression of P-gp in MCF-7 and MDA-MB-231 cells is well-documented in literature. […] For evaluating the P-gp efflux, the multi-drug resistance dye efflux assay kit (Chemicon International, USA) was employed in which the MCF-7 and MDA-MB-231 cells (2.5 × 10^5) were treated with Rh-123 and DiOC2 dyes, with or without vinblastine. To assess the inhibitory activity of SPNMS on MDR1 transporters, these were incubated with Rh-123 alone, Rh-123 with SPNMS, and Rh-123 with vinblastine at 37 °C, along with Rh-123 at 4 °C. Likewise, to estimate the potential of the developed SPNMS formulation for blocking the activity of BCRP transporters, DiOC2 dye was employed. On similar heels, MCF-7 and MDA-MB-231 cells (2.5 × 10^5) were incubated with DiOC2 alone, DiOC2 with SPNMS, and DiOC2 with vinblastine at 37 °C, along with DiOC2 at 4 °C. The fluorescence intensity was measured in a TECAN fluorescence microplate reader at an excitation wavelength of 485 nm and an emission wavelength of 530 nm.

[8] = target: T2, BCRP transporters (Homo sapiens, UniProt Q9UNQ0); assay: P-gp efflux assay with DiOC2 dye (multi-drug resistance dye efflux kit); type: cell-based; details: MCF-7 and MDA-MB-231 cells, 37 °C
T2 construct: endogenous in cells; host or cells: MCF-7 and MDA-MB-231 cells
T2 sequence (Q9UNQ0 1-655): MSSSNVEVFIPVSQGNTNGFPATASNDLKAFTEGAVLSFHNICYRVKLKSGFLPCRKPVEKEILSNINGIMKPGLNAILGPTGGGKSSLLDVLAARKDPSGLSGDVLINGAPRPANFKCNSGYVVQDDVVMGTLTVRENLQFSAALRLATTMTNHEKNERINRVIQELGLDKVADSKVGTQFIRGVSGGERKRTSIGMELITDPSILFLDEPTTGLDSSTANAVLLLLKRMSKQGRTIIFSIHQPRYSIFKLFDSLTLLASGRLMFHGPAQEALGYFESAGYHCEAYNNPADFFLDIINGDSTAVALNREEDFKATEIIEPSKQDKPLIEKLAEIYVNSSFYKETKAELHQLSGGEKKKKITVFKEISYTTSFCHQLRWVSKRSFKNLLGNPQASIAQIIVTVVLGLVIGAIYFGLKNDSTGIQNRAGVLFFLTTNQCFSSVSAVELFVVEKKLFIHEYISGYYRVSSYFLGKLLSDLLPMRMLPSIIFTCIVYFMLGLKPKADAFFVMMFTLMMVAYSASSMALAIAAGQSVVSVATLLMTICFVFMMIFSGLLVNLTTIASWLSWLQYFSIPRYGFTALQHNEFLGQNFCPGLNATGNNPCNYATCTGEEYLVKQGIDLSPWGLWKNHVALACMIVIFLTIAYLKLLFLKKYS
Experimental: as §1

T1 sequence (P08183 whole entry): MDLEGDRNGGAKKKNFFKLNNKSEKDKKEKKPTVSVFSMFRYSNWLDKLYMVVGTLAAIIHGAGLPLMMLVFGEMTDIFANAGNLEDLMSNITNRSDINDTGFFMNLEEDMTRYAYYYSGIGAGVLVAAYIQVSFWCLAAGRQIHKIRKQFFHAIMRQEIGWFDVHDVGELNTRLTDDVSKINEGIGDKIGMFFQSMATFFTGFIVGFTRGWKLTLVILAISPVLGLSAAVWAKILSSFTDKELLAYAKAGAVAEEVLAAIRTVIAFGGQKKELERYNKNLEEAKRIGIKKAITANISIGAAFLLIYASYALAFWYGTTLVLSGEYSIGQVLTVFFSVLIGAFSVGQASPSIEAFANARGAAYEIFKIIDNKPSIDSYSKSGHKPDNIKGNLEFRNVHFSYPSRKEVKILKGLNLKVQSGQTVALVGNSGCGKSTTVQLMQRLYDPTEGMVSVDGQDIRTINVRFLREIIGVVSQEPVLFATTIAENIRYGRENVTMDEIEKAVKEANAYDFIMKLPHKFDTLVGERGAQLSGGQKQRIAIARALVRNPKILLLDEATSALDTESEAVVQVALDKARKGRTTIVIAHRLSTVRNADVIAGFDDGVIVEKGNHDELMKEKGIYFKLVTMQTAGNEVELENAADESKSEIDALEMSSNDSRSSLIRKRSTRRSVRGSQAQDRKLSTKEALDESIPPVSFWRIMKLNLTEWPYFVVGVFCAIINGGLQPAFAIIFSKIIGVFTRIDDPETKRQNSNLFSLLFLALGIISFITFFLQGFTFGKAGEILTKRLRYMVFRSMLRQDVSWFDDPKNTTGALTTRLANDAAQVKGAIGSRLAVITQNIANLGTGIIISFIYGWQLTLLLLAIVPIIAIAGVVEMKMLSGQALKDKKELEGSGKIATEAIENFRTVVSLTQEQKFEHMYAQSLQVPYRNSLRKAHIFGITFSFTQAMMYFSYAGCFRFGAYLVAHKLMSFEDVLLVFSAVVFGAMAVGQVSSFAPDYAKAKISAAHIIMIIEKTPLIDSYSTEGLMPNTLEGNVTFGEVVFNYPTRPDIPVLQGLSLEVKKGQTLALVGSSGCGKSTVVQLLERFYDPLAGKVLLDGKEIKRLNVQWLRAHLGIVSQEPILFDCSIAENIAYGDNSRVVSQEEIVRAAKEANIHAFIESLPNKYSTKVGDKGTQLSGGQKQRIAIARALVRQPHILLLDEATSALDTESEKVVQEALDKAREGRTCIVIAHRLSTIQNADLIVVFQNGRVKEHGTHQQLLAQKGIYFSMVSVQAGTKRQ

## O=c1c2cc(O)c(O)cc2oc2cc(O)c([C@@H]3O[C@H](CO)[C@@H](O)[C@H](O)[C@H]3O)c(O)c12 [Mgf, mangiferin]
[1]; PEG 200 (cosolvent), highest among cosolvents, read-out: equilibrium solubility in PEG 200
  solubility thermodynamic at 72 h: 10.2 mg/mL (≈ 24.2 mM)
[1]; vitamin E TPGS (water-soluble emulgent), maximum among surfactants, read-out: equilibrium solubility in vitamin E TPGS
  solubility thermodynamic at 72 h: 17.6 mg/mL (≈ 41.8 mM)
[2]; plasma
  Cmax: 297 ± 56.4 ng/mL
  MRT: 8.16 ± 1.73 h
  Tmax: 3.08 ± 0.18 h
[2]
  Cl: 2543.44 ± 453.42 mL/h
  Ka: 0.32 ± 0.09 h⁻¹
[3]
  histopathological change(s) in vital organs: no histopathological change(s)
[4]
  HCT: 43.9%
  HGB: 14.54 g/dL
  PLT count: AG* 589 × 10^3/μL
  RBC count: 8.21e+06 µL⁻¹
  WBC count: 16400 µL⁻¹
[5]
  BCS class: BCS class IV

## COC(=O)c1ccccc1-c1c2ccc(=N)cc-2oc2cc(N)ccc12 [Rh-123, Rhodamine 123]
[6]
  intestinal permeation (CLSM): does not permeate through the intestine

## CC[C@]1(O)C[C@@H]2CN(CCc3c([nH]c4ccccc34)[C@@](C(=O)OC)(c3cc4c(cc3OC)N(C)[C@H]3[C@@](O)(C(=O)OC)[C@H](OC(C)=O)[C@]5(CC)C=CCN6CC[C@]43[C@@H]65)C2)C1 [vinblastine]
[7]
  inhibition of Rh-123 efflux (fluorescence intensity): higher fluorescence intensity without any efflux
[8]
  inhibition of DiOC2 efflux (fluorescence intensity): higher fluorescence intensity without any efflux
